Test results taken from article PMC11988454, “Discovery of synthetic small molecules targeting the central regulator of Salmonella pathogenicity” (Science Advances, 2025).
pKd: −log10 of the molar value.

What was measured:
[1] = system: T3SS-1 proteins SipA, SctE (SipB), SctP (InvJ); T1SS protein SiiF; assay: Western blotting of secreted and whole-cell proteins; assay type: cell-based, S. Typhimurium; conditions: Western blot
Description: Western blot analysis to quantify secreted and nonsecreted proteins was carried out as previously described ([66]). After a 5-hour culture under SPI-1–inducing conditions, cultures were centrifuged at 10,000g for 2 min at 4°C to separate cell pellets for the quantification of target proteins in whole cells, and the supernatant for the quantification of secreted proteins. The supernatants were first filtered with a 0.22-μm pore size filter. Sodium deoxycholic acid was then added to a final concentration of 0.1% (w/v) followed by a protein precipitation with 10% trichloroacetic acid (v/v) for 30 min at 4°C. The samples were pelleted by centrifugation at 20,000g for 20 min at 4°C to retrieve precipitated proteins, which were lastly washed with acetone before resuspension in SDS–polyacrylamide gel electrophoresis (PAGE) loading buffer. Whole-cell samples were directly resuspended in SDS-PAGE loading buffer.

HilD [2] = biological target: T1, HilD (Salmonella typhimurium, UniProt P0CL08); assay: nanoDSF thermal stability, HilD; assay type: binding, S. Typhimurium
T1 construct: His6-SUMO (N, cleaved yes); made in house; host or cells: E. coli C41(DE3)
T1 sequence (P0CL08 whole entry): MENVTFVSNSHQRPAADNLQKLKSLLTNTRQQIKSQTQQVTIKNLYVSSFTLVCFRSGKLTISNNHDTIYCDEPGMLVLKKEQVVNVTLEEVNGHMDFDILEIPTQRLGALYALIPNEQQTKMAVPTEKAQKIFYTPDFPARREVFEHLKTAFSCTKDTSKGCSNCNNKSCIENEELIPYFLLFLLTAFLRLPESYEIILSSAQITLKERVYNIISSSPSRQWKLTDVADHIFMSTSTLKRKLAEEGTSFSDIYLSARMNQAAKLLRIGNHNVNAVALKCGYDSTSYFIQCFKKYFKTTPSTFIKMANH
Description: Thermal stability of proteins was determined using nanoDSF, with runs performed on a Prometheus NT.48 (NanoTemper Technologies). A twofold serial dilution series of C26 was prepared in DMSO. C26 was added to HilD or HilC (5 μM) in SEC buffer, giving a final DMSO concentration of 1% (v/v). Samples were incubated for >20 min at r.t. and centrifuged for 2 min prior to loading of standard capillaries (no. PR-C002). Samples were heated from 20° to 80°C with a temperature gradient of 0.5°C min^−1. Melting temperatures were calculated from changes in the fluorescence ratio (350/330 nm), using PR.Stability Analysis v1.0.3 and a temperature range of 40° to 70°C for curve fitting. Data analysis was performed using Prism 8.4 (GraphPad). The change in HilD melting temperature, Tm, was fitted as a function of ligand concentration, using Eqs. 1 and 2 to yield apparent affinity (Kd,app) values Tm{[L]0}=Tm,lower+(Tm,upper−Tm,lower)*(1−α{[L]0}) (1) α{[L]0}=[P]t−Kd−[L]t+{[P]t+[L]t+Kd,app}^2−{4[P]t[L]t}/2[P]t (2) where [P]t and [L]t are the total protein and ligand concentrations, respectively.

HilD mutants [3] = biological target: T2, HilD mutants (Salmonella typhimurium, UniProt P0CL08, I100A); assay: EMSA, binding of HilD mutants to PhilA; assay type: biochemical, S. Typhimurium; conditions: 600 nM protein
T2 construct: His6-SUMO (N, cleaved yes); made in house; host or cells: E. coli C41(DE3)
T2 sequence (P0CL08 whole entry I100A): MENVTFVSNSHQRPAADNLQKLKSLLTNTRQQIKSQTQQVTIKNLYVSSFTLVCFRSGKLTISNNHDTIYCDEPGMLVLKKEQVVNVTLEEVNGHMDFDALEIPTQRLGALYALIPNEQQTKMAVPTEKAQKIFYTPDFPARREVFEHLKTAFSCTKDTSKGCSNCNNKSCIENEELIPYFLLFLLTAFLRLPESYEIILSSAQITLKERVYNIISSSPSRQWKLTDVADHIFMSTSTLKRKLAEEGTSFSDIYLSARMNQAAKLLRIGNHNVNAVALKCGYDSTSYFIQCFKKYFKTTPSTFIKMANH
Description: (§1) (F) EMSAs showing the binding of 600 nM HilDWT, HilDL45A, HilDY46A, HilDI100A, and HilDY212A to PhilA, upon incubation with the indicated concentrations of C26.

HilD mutants [4] = assay: EMSA, binding of HilD mutants to PhilA; assay type: biochemical, S. Typhimurium; conditions: 600 nM protein
Description: as §1

[5] = system: T3SS-2 (SseF-HiBiT secretion); assay: SseF-HiBiT injection assay in LgBiT-expressing RAW 264.7 macrophages; assay type: cell-based, S. Typhimurium; conditions: C26 100 μM, inside RAW 264.7 macrophages, 7 hours after infection, MOI 10
Description: SseF injection assay was performed using the split-Nanoluc (HiBiT/LgBiT) system as described for SipA. In a white 96-well plate (NUNC) with optical bottom, 10^4 LgBiT-expressing RAW 264.7 macrophages ([65]) were seeded in 100 μl of DMEM, 24 hours before the infection. The strain harboring the plasmid-encoded sseF-HiBiT and the isogenic strain ΔssaV were grown in LB-NaCl at 37°C at 180 rpm until an OD600 of 0.9. Bacteria were washed twice with HBSS (Serva) and then used to infect preseeded cells on a 96-well plate with an MOI of 10. The plate was centrifuged at 300g for 3 min and then incubated for 30 min to allow invasion. Afterward, macrophages were washed with DMEM and incubated for 1 hour in DMEM supplemented with gentamicin (100 μg/ml) to eliminate noninvading bacteria. The medium was replaced by DMEM with gentamicin (16 μg/ml), supplemented with either DMSO (1%) or C26 at different concentrations. Cells were incubated at 37°C with 5% (v/v) CO2 for 5.5 hours (total infection time of 7 hours) and then washed twice with 1x PBS before luminescence measurements were carried out following the manufacturer’s instructions.

HilD [6] = biological target: T1, HilD; assay: EMSA, binding to hilA promoter, HilD; assay type: biochemical, S. Typhimurium
Description: EMSAs were performed similarly to as described previously ([39]) using a 62–base pair double-stranded (dsDNA) fragment of the hilA promoter, encompassing the A1 binding site ([82]). dsDNA fragments were generated by melting the complementary primers PhilA_A1_f / PhilA_A1_r (table S10) together in TE buffer [10 mM Tris (pH 8.0) and 1 mM EDTA] at 95°C for 10 min before slowly cooling to r.t. The forward primer was modified with a 5′-Cy5 fluorescent dye for detection. The protein (600 nM) was incubated with 50 nM labeled DNA in EMSA buffer [20 mM Tris (pH 8.0), 100 mM KCl, 100 μM EDTA, and 3% glycerol]. C26 was diluted first in DMSO and subsequently 1:100 into the protein-DNA sample. Samples were incubated at 37°C for 15 min, supplemented with diluted DNA loading dye, and separated on a 1.5-mm-thick, 6% (w/v) TBE polyacrylamide gel at 6°C at a constant voltage of 100 V. Gels were imaged using a ChemiDocMP imaging system (Bio-Rad).

CN(CC(=O)NCc1ccc2c(c1)OCO2)Cc1ccc(Br)s1 [C26, N-(benzo[d][1,3]dioxol-5-ylmethyl)-2-{[(5-bromothiophen-2-yl)methyl](methyl)amino}acetamide]
SipA, SctE and SctP secretion into the culture supernatant [1]: reduced in a dose-dependent manner | expression of SipA, SctE and SctP in whole cells [1]: blocked the expression | expression of SiiF ([1]; FLAG-tagged SiiF): dose-dependent reduction | pKd (HilD [2]): 4.52 | HilDI100A binding to PhilA (HilD mutants [3]): hindered | DNA binding ability of HilDL45A, HilDY46A, HilDY212A (HilD mutants [4]): did not exert any effect | SseF-HiBiT secretion, % of the control [5]: 37% | DNA binding activity of HilD (hilA promoter) (HilD [6]): dose-dependent inhibition of the DNA binding activity
